Laboratory results from the supplement of paper PMC10733146.

What was measured:
Assay in all cases: viability relative to DMSO control (fraction); higher = less drug effect (more viable cells)
Conditions in all cases: 48 h
Vorinostat = compound: O=C(CCCCCCC(=O)Nc1ccccc1)NO [Vorinostat]
Method in brief: (§1)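 In 384-well plates with compounds pre-plated at five concentrations (one well per concentration), primary mononuclear tumour cells were plated at 4 × 10^4 cells per well. The cells came from blood or bone marrow by Ficoll isolation or from processed lymph node, and were used fresh or cryopreserved. Culture ran for 48 h at 37 °C and 5% CO2 in RPMI-1640 containing penicillin/streptomycin, L-glutamine and human serum. Viability was read as CellTiter-Glo luminescence, normalised to the median of 16 inner DMSO wells.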

TMP269 = compound: O=C(NCC1(c2nc(-c3ccccc3)cs2)CCOCC1)c1cccc(-c2noc(C(F)(F)F)n2)c1 [TMP269]
Method in brief: as §1

Cladribine = compound: Nc1nc(Cl)nc2c1ncn2[C@H]1C[C@H](O)[C@@H](CO)O1 [Cladribine]
Method in brief: as §1

Pralatrexate = compound: C#CCC(Cc1cnc2nc(N)nc(N)c2n1)c1ccc(C(=O)N[C@@H](CCC(=O)O)C(=O)O)cc1 [Pralatrexate]
Method in brief: as §1

Idarubicin = compound: CC(=O)[C@]1(O)Cc2c(O)c3c(c(O)c2[C@@H](O[C@H]2C[C@H](N)[C@H](O)[C@H](C)O2)C1)C(=O)c1ccccc1C3=O [Idarubicin]
Method in brief: as §1

Pentostatin = compound: OC[C@H]1O[C@@H](n2cnc3c2N=CNC[C@H]3O)C[C@@H]1O [Pentostatin]
Method in brief: as §1

MLN-120B = compound: COc1c(Cl)cc2c([nH]c3cnccc32)c1NC(=O)c1cccnc1C [MLN-120B]
Method in brief: as §1

Ribociclib = compound: CN(C)C(=O)c1cc2cnc(Nc3ccc(N4CCNCC4)cn3)nc2n1C1CCCC1 [Ribociclib]
Method in brief: as §1

Iniparib = compound: NC(=O)c1ccc(I)c([N+](=O)[O-])c1 [Iniparib]
Method in brief: as §1

Imatinib = compound: Cc1ccc(NC(=O)c2ccc(CN3CCN(C)CC3)cc2)cc1Nc1nccc(-c2cccnc2)n1 [Imatinib]
Method in brief: as §1

Obatoclax mesylate = compound: COC1=CC(c2cc3ccccc3[nH]2)=N/C1=C\c1[nH]c(C)cc1C [Obatoclax mesylate]
Method in brief: as §1

AZD7762 = compound: NC(=O)Nc1cc(-c2cccc(F)c2)sc1C(=O)N[C@H]1CCCNC1 [AZD7762]
Method in brief: as §1

Birinapant = compound: CC[C@H](NC(=O)[C@H](C)NC)C(=O)N1C[C@@H](O)C[C@H]1Cc1c(-c2[nH]c3cc(F)ccc3c2C[C@@H]2C[C@H](O)CN2C(=O)[C@H](CC)NC(=O)[C@H](C)NC)[nH]c2cc(F)ccc12 [Birinapant]
Method in brief: as §1

ERK5-IN-1 = compound: CCOc1cc(C(=O)N2CCC(N3CCN(C)CC3)CC2)ccc1Nc1ncc2c(n1)N(C1CCCC1)c1ccccc1C(=O)N2C [ERK5-IN-1]
Method in brief: as §1

Panobinostat = compound: Cc1[nH]c2ccccc2c1CCNCc1ccc(/C=C/C(=O)NO)cc1 [Panobinostat]
Method in brief: as §1

primary AML patient cells (S017)
viability (Vorinostat; 0.016 µM): 1.03
viability (Vorinostat; 0.08 µM): 0.989
viability (Vorinostat; 0.4 µM): 0.825
viability (Vorinostat; 2 µM): 0.226
viability (Vorinostat; 10 µM): 0.141
viability (TMP269; 0.024 µM): 1.05
viability (TMP269; 0.12 µM): 1
viability (TMP269; 0.6 µM): 1.06
viability (TMP269; 3 µM): 1.02
viability (TMP269; 15 µM): 0.959
viability (Cladribine; 0.024 µM): 1.04
viability (Cladribine; 0.12 µM): 0.563
viability (Cladribine; 0.6 µM): 0.23
viability (Cladribine; 3 µM): 0.155
viability (Cladribine; 15 µM): 0.122
viability (Pralatrexate; 0.024 µM): 0.979
viability (Pralatrexate; 0.12 µM): 0.952
viability (Pralatrexate; 0.6 µM): 1.05
viability (Pralatrexate; 3 µM): 1.04
viability (Pralatrexate; 15 µM): 1.1
viability (Idarubicin; 0.024 µM): 0.987
viability (Idarubicin; 0.12 µM): 0.675
viability (Idarubicin; 0.6 µM): 0.121
viability (Idarubicin; 3 µM): 0.0316
viability (Idarubicin; 15 µM): 0.0254
viability (Pentostatin; 0.03 µM): 0.829
viability (Pentostatin; 0.15 µM): 0.994
viability (Pentostatin; 0.75 µM): 1.04
viability (Pentostatin; 3.75 µM): 0.972
viability (Pentostatin; 18.76 µM): 0.842
viability (MLN-120B; 0.024 µM): 0.92
viability (MLN-120B; 0.12 µM): 0.921
viability (MLN-120B; 0.6 µM): 0.908
viability (MLN-120B; 3 µM): 0.937
viability (MLN-120B; 15 µM): 0.912
viability (Ribociclib; 0.024 µM): 1.04
viability (Ribociclib; 0.12 µM): 1.04
viability (Ribociclib; 0.6 µM): 1.03
viability (Ribociclib; 3 µM): 1.15
viability (Ribociclib; 15 µM): 0.744
viability (Iniparib; 0.024 µM): 1.1
viability (Iniparib; 0.12 µM): 1.08
viability (Iniparib; 0.6 µM): 1.08
viability (Iniparib; 3 µM): 1.02
viability (Iniparib; 15 µM): 0.99
viability (Imatinib; 0.08 µM): 0.997
viability (Imatinib; 0.4 µM): 1.08
viability (Imatinib; 10 µM): 1.07
viability (Obatoclax mesylate; 0.024 µM): 1.04
viability (Obatoclax mesylate; 0.12 µM): 1
viability (Obatoclax mesylate; 0.6 µM): 0.987
viability (Obatoclax mesylate; 3 µM): 0.87
viability (Obatoclax mesylate; 15 µM): 0.421
viability (AZD7762; 0.024 µM): 0.796
viability (AZD7762; 0.12 µM): 0.602
viability (AZD7762; 0.6 µM): 0.519
viability (AZD7762; 3 µM): 0.509
viability (AZD7762; 15 µM): 0.391
viability (Birinapant; 0.0008 µM): 0.867
viability (Birinapant; 0.004 µM): 0.921
viability (Birinapant; 0.02 µM): 0.921
viability (Birinapant; 0.1 µM): 0.851
viability (Birinapant; 0.5 µM): 0.748
viability (ERK5-IN-1; 0.024 µM): 0.981
viability (ERK5-IN-1; 0.12 µM): 0.898
viability (ERK5-IN-1; 0.6 µM): 0.896
viability (ERK5-IN-1; 3 µM): 0.523
viability (ERK5-IN-1; 15 µM): 0.161
viability (Panobinostat; 0.00064 µM): 1.05
viability (Panobinostat; 0.0032 µM): 0.746
viability (Panobinostat; 0.016 µM): 0.152
viability (Panobinostat; 0.08 µM): 0.169
viability (Panobinostat; 0.4 µM): 0.309

primary AML patient cells (S089)
viability (Vorinostat; 0.016 µM): 0.939
viability (Vorinostat; 0.08 µM): 0.983
viability (Vorinostat; 0.4 µM): 0.62
viability (Vorinostat; 2 µM): 0.262
viability (Vorinostat; 10 µM): 0.0558
viability (TMP269; 0.024 µM): 0.72
viability (TMP269; 0.12 µM): 0.736
viability (TMP269; 0.6 µM): 0.621
viability (TMP269; 3 µM): 0.689
viability (TMP269; 15 µM): 0.543
viability (Cladribine; 0.024 µM): 0.764
viability (Cladribine; 0.12 µM): 0.436
viability (Cladribine; 0.6 µM): 0.321
viability (Cladribine; 3 µM): 0.279
viability (Cladribine; 15 µM): 0.236
viability (Pralatrexate; 0.024 µM): 0.514
viability (Pralatrexate; 0.12 µM): 0.503
viability (Pralatrexate; 0.6 µM): 0.517
viability (Pralatrexate; 3 µM): 0.496
viability (Pralatrexate; 15 µM): 0.485
viability (Idarubicin; 0.024 µM): 0.473
viability (Idarubicin; 0.12 µM): 0.128
viability (Idarubicin; 0.6 µM): 0.0271
viability (Idarubicin; 3 µM): 0.0237
viability (Idarubicin; 15 µM): 0.0287
viability (Pentostatin; 0.03 µM): 0.836
viability (Pentostatin; 0.15 µM): 1.01
viability (Pentostatin; 0.75 µM): 0.918
viability (Pentostatin; 3.75 µM): 1.03
viability (Pentostatin; 18.76 µM): 0.881
viability (MLN-120B; 0.024 µM): 0.612
viability (MLN-120B; 0.12 µM): 0.714
viability (MLN-120B; 0.6 µM): 0.556
viability (MLN-120B; 3 µM): 0.655
viability (MLN-120B; 15 µM): 0.432
viability (Ribociclib; 0.024 µM): 0.719
viability (Ribociclib; 0.12 µM): 0.899
viability (Ribociclib; 0.6 µM): 0.574
viability (Ribociclib; 3 µM): 0.655
viability (Ribociclib; 15 µM): 0.306
viability (Iniparib; 0.024 µM): 0.9
viability (Iniparib; 0.12 µM): 1.04
viability (Iniparib; 0.6 µM): 0.688
viability (Iniparib; 3 µM): 0.775
viability (Iniparib; 15 µM): 0.719
viability (Imatinib; 0.016 µM): 1.02
viability (Imatinib; 0.08 µM): 1.06
viability (Imatinib; 0.4 µM): 1.18
viability (Imatinib; 2 µM): 1
viability (Imatinib; 10 µM): 0.81
viability (Obatoclax mesylate; 0.024 µM): 1.09
viability (Obatoclax mesylate; 0.12 µM): 0.937
viability (Obatoclax mesylate; 0.6 µM): 0.777
viability (Obatoclax mesylate; 3 µM): 0.6
viability (Obatoclax mesylate; 15 µM): 0.0871
viability (AZD7762; 0.024 µM): 0.533
viability (AZD7762; 0.12 µM): 0.444
viability (AZD7762; 0.6 µM): 0.42
viability (AZD7762; 3 µM): 0.41
viability (AZD7762; 15 µM): 0.364
viability (Birinapant; 0.0008 µM): 0.907
viability (Birinapant; 0.004 µM): 0.687
viability (Birinapant; 0.02 µM): 0.637
viability (Birinapant; 0.1 µM): 0.224
viability (Birinapant; 0.5 µM): 0.0766
viability (ERK5-IN-1; 0.024 µM): 0.71
viability (ERK5-IN-1; 0.12 µM): 0.826
viability (ERK5-IN-1; 0.6 µM): 0.564
viability (ERK5-IN-1; 3 µM): 0.753
viability (ERK5-IN-1; 15 µM): 0.278
viability (Panobinostat; 0.00064 µM): 0.767
viability (Panobinostat; 0.0032 µM): 0.403
viability (Panobinostat; 0.016 µM): 0.124
viability (Panobinostat; 0.08 µM): 0.0519
viability (Panobinostat; 0.4 µM): 0.0606

primary MCL patient cells (S063)
viability (Vorinostat; 0.016 µM): 1.07
viability (Vorinostat; 0.08 µM): 1.06
viability (Vorinostat; 0.4 µM): 0.924
viability (Vorinostat; 2 µM): 0.365
viability (Vorinostat; 10 µM): 0.0214
viability (TMP269; 0.024 µM): 0.982
viability (TMP269; 0.12 µM): 1.01
viability (TMP269; 0.6 µM): 1.1
viability (TMP269; 3 µM): 1.03
viability (TMP269; 15 µM): 1
viability (Cladribine; 0.024 µM): 0.931
viability (Cladribine; 0.12 µM): 0.645
viability (Cladribine; 0.6 µM): 0.272
viability (Cladribine; 3 µM): 0.129
viability (Cladribine; 15 µM): 0.0794
viability (Pralatrexate; 0.024 µM): 1
viability (Pralatrexate; 0.12 µM): 0.963
viability (Pralatrexate; 0.6 µM): 0.911
viability (Pralatrexate; 3 µM): 0.901
viability (Pralatrexate; 15 µM): 0.917
viability (Idarubicin; 0.024 µM): 1.11
viability (Idarubicin; 0.12 µM): 0.475
viability (Idarubicin; 0.6 µM): 0.0231
viability (Idarubicin; 3 µM): 0.0118
viability (Idarubicin; 15 µM): 0.0146
viability (Pentostatin; 0.03 µM): 0.96
viability (Pentostatin; 0.15 µM): 0.997
viability (Pentostatin; 0.75 µM): 0.972
viability (Pentostatin; 3.75 µM): 0.927
viability (Pentostatin; 18.76 µM): 0.868
viability (MLN-120B; 0.024 µM): 0.959
viability (MLN-120B; 0.12 µM): 0.924
viability (MLN-120B; 0.6 µM): 0.936
viability (MLN-120B; 3 µM): 0.814
viability (MLN-120B; 15 µM): 0.66
viability (Ribociclib; 0.024 µM): 1.05
viability (Ribociclib; 0.12 µM): 0.964
viability (Ribociclib; 0.6 µM): 1.04
viability (Ribociclib; 3 µM): 0.927
viability (Ribociclib; 15 µM): 0.679
viability (Iniparib; 0.024 µM): 1.07
viability (Iniparib; 0.12 µM): 1.11
viability (Iniparib; 0.6 µM): 0.978
viability (Iniparib; 3 µM): 1.06
viability (Iniparib; 15 µM): 0.73
viability (Imatinib; 0.08 µM): 1.17
viability (Imatinib; 0.4 µM): 1.18
viability (Imatinib; 2 µM): 1.07
viability (Imatinib; 10 µM): 0.952
viability (Obatoclax mesylate; 0.024 µM): 1.11
viability (Obatoclax mesylate; 0.12 µM): 1.09
viability (Obatoclax mesylate; 0.6 µM): 0.954
viability (Obatoclax mesylate; 3 µM): 0.778
viability (Obatoclax mesylate; 15 µM): 0.159
viability (AZD7762; 0.024 µM): 0.635
viability (AZD7762; 0.12 µM): 0.249
viability (AZD7762; 0.6 µM): 0.16
viability (AZD7762; 3 µM): 0.0982
viability (AZD7762; 15 µM): 0.123
viability (Birinapant; 0.0008 µM): 1.02
viability (Birinapant; 0.004 µM): 1.1
viability (Birinapant; 0.02 µM): 1.21
viability (Birinapant; 0.1 µM): 1.23
viability (Birinapant; 0.5 µM): 1.29
viability (ERK5-IN-1; 0.024 µM): 1.04
viability (ERK5-IN-1; 0.12 µM): 0.967
viability (ERK5-IN-1; 0.6 µM): 1
viability (ERK5-IN-1; 3 µM): 0.702
viability (ERK5-IN-1; 15 µM): 0.279
viability (Panobinostat; 0.00064 µM): 1.03
viability (Panobinostat; 0.0032 µM): 0.93
viability (Panobinostat; 0.016 µM): 0.182
viability (Panobinostat; 0.08 µM): 0.0167
viability (Panobinostat; 0.4 µM): 0.0196
